Experimental data: US11331327B2, “Antibacterial use of halogenated salicylanilides” (UNION therapeutics A/S, priority 2014, dated 2022)
Values after ≈ are worked out from the molar mass of the structure shown.

Test system: S. aureus clinical isolates and S. aureus ATCC 29213
Assay: MIC assay according to CLSI criteria, Example 2, S. aureus strains
Assay type: cell-based, Staphylococcus aureus
Conditions: Staphylococcus aureus
In short: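 Wells received roughly 5×10^5 S. aureus cells taken in exponential growth, in cation-adjusted MH broth. Plates held aerobically at 37° C for 18 hours.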

CN[C@H](CC(C)C)C(=O)N[C@H]1C(=O)N[C@@H](CC(N)=O)C(=O)N[C@H]2C(=O)N[C@H]3C(=O)N[C@H](C(=O)N[C@H](C(=O)O)c4cc(O)cc(O)c4-c4cc3ccc4O)[C@H](O)c3ccc(c(Cl)c3)Oc3cc2cc(c3O[C@@H]2O[C@H](CO)[C@@H](O)[C@H](O)[C@H]2O[C@H]2C[C@](C)(N)[C@H](O)[C@H](C)O2)Oc2ccc(cc2Cl)[C@H]1O [Vancomycin]
MIC (ATCC 29213 / MRSA, strain MRSA 15): 2 µg/mL (≈ 1.38 µM)
MIC (ATCC 29213 / MRSA, strain MRSA 16): 1 µg/mL (≈ 0.69 µM)
MIC (ATCC 29213 / MRSA, strain MRSA 17): 2 µg/mL (≈ 1.38 µM)
MIC (ATCC 29213 / MRSA, strain MRSA 18): 1 µg/mL (≈ 0.69 µM)
MIC (ATCC 29213 / MRSA, strain MRSA 19): 1 µg/mL (≈ 0.69 µM)
MIC (ATCC 29213 / MRSA, strain MRSA 20): 1 µg/mL (≈ 0.69 µM)
MIC (ATCC 29213 / MRSA, strain MRSA 21): 1 µg/mL (≈ 0.69 µM)
MIC (ATCC 29213 / MRSA, strain MRSA 22): 0.5 µg/mL (≈ 0.345 µM)
MIC (ATCC 29213 / MRSA, strain MRSA 23): 1 µg/mL (≈ 0.69 µM)
MIC (ATCC 29213 / MRSA, strain MRSA 24): 2 µg/mL (≈ 1.38 µM)
MIC (ATCC 29213 / MRSA, strain MRSA 25): 1 µg/mL (≈ 0.69 µM)
MIC (ATCC 29213 / MRSA, strain MRSA 26): 1 µg/mL (≈ 0.69 µM)
MIC (ATCC 29213 / MRSA, strain MRSA 27): 1 µg/mL (≈ 0.69 µM)
MIC (ATCC 29213 / MRSA, strain MRSA 27b): 1 µg/mL (≈ 0.69 µM)
MIC (ATCC 29213 / MRSA, strain MRSA 28): 1 µg/mL (≈ 0.69 µM)
MIC (ATCC 29213 / MRSA, strain MRSA 29): 1 µg/mL (≈ 0.69 µM)
MIC (ATCC 29213 / MRSA, strain MRSA 30): 1 µg/mL (≈ 0.69 µM)
MIC (ATCC 29213 / MRSA, strain MRSA 31): 1 µg/mL (≈ 0.69 µM)
MIC (ATCC 29213 / MRSA, strain MRSA 32): 1 µg/mL (≈ 0.69 µM)
MIC (ATCC 29213 / MRSA, strain MRSA 33): 1 µg/mL (≈ 0.69 µM)
MIC (ATCC 29213 / MRSA, strain MRSA 34): 1 µg/mL (≈ 0.69 µM)
MIC (ATCC 29213 / MRSA, strain MRSA 35): 1 µg/mL (≈ 0.69 µM)
MIC (ATCC 29213 / MRSA, strain MRSA 36): 1 µg/mL (≈ 0.69 µM)
MIC (ATCC 29213 / MRSA, strain MRSA 37): 1 µg/mL (≈ 0.69 µM)
MIC (ATCC 29213 / MRSA, strain MRSA 38): 1 µg/mL (≈ 0.69 µM)
MIC (ATCC 29213 / MRSA, strain MRSA 39): 1 µg/mL (≈ 0.69 µM)
MIC (ATCC 29213 / MRSA, strain MRSA 40): 1 µg/mL (≈ 0.69 µM)
MIC (ATCC 29213 / MRSA, strain MRSA 41): 1 µg/mL (≈ 0.69 µM)
MIC (ATCC 29213 / MRSA, strain MRSA 42): 1 µg/mL (≈ 0.69 µM)
MIC (ATCC 29213 / MRSA, strain MRSA 43): 1 µg/mL (≈ 0.69 µM)
MIC (ATCC 29213 / MRSA, strain MRSA 44): 1 µg/mL (≈ 0.69 µM)
MIC (ATCC 29213 / MRSA, strain MRSA 45): 1 µg/mL (≈ 0.69 µM)
MIC (ATCC 29213 / MRSA, strain MRSA 46): 1 µg/mL (≈ 0.69 µM)
MIC (ATCC 29213 / MRSA, strain MRSA 47): 0.5 µg/mL (≈ 0.345 µM)
MIC (ATCC 29213 / MRSA, strain MRSA 48): 0.5 µg/mL (≈ 0.345 µM)
MIC (ATCC 29213 / MRSA, strain MRSA 49): 2 µg/mL (≈ 1.38 µM)
MIC (ATCC 29213 / MRSA, strain MRSA 50): 1 µg/mL (≈ 0.69 µM)
MIC (ATCC 29213 / MRSA, strain MRSA 51): 1 µg/mL (≈ 0.69 µM)
MIC (ATCC 29213 / MRSA, strain MRSA 52): 1 µg/mL (≈ 0.69 µM)
MIC (ATCC 29213 / MRSA, strain MRSA 53): 1 µg/mL (≈ 0.69 µM)
MIC (ATCC 29213 / MRSA, strain MRSA 54): 2 µg/mL (≈ 1.38 µM)
MIC (ATCC 29213 / MRSA, strain MRSA 55): 0.5 µg/mL (≈ 0.345 µM)
MIC (ATCC 29213 / MRSA, strain MRSA 56): 1 µg/mL (≈ 0.69 µM)
MIC (ATCC 29213 / MRSA, strain MRSA 57): 1 µg/mL (≈ 0.69 µM)
MIC (ATCC 29213 / MRSA, strain MRSA 58): 1 µg/mL (≈ 0.69 µM)
MIC (ATCC 29213 / MRSA, strain MRSA 59): 1 µg/mL (≈ 0.69 µM)
MIC (ATCC 29213 / MRSA, strain MRSA 60): 0.5 µg/mL (≈ 0.345 µM)
MIC (ATCC 29213 / MRSA, strain MRSA 61): 2 µg/mL (≈ 1.38 µM)
MIC (ATCC 29213 / MRSA, strain MRSA 62): 2 µg/mL (≈ 1.38 µM)
MIC (ATCC 29213 / MRSA, strain MRSA 63): 1 µg/mL (≈ 0.69 µM)
MIC (ATCC 29213 / MRSA, strain MRSA 64): 1 µg/mL (≈ 0.69 µM)
MIC (ATCC 29213 / MRSA, strain MRSA 65): 1 µg/mL (≈ 0.69 µM)
MIC (ATCC 29213 / MRSA, strain MRSA 66): 1 µg/mL (≈ 0.69 µM)
MIC (ATCC 29213 / MRSA, strain MRSA 67): 1 µg/mL (≈ 0.69 µM)
MIC (ATCC 29213 / MRSA, strain MRSA 68): 1 µg/mL (≈ 0.69 µM)
MIC (ATCC 29213 / MRSA, strain MRSA 69): 1 µg/mL (≈ 0.69 µM)
MIC (ATCC 29213 / MRSA, strain MRSA 70): 1 µg/mL (≈ 0.69 µM)
MIC (ATCC 29213 / MRSA, strain MRSA 71): 1 µg/mL (≈ 0.69 µM)
MIC (ATCC 29213 / MRSA, strain MRSA 72): 1 µg/mL (≈ 0.69 µM)
MIC (ATCC 29213 / MRSA, strain MRSA 73): 1 µg/mL (≈ 0.69 µM)
MIC (ATCC 29213 / MRSA, strain MRSA 74): 2 µg/mL (≈ 1.38 µM)
MIC (ATCC 29213 / MRSA, strain MRSA 75): 1 µg/mL (≈ 0.69 µM)
MIC (ATCC 29213 / MRSA, strain MRSA 76): 1 µg/mL (≈ 0.69 µM)
MIC (ATCC 29213 / MRSA, strain MRSA 77): 2 µg/mL (≈ 1.38 µM)
MIC (ATCC 29213 / MRSA, strain MRSA 78): 1 µg/mL (≈ 0.69 µM)
MIC (ATCC 29213 / MRSA, strain MRSA 79): 1 µg/mL (≈ 0.69 µM)
MIC (ATCC 29213 / MRSA, strain MRSA 80): 1 µg/mL (≈ 0.69 µM)
MIC (ATCC 29213 / MRSA, strain MRSA 81): 1 µg/mL (≈ 0.69 µM)
MIC (ATCC 29213 / MRSA, strain MRSA 82): 2 µg/mL (≈ 1.38 µM)
MIC (ATCC 29213 / MRSA, strain MRSA 83): 1 µg/mL (≈ 0.69 µM)
MIC (ATCC 29213 / MRSA, strain MRSA 84): 2 µg/mL (≈ 1.38 µM)
MIC (ATCC 29213 / MRSA, strain MRSA 85): 1 µg/mL (≈ 0.69 µM)
MIC (ATCC 29213 / MRSA, strain MRSA 86): 2 µg/mL (≈ 1.38 µM)
MIC (ATCC 29213 / MRSA, strain MRSA 87): 1 µg/mL (≈ 0.69 µM)
MIC (ATCC 29213 / MRSA, strain MRSA 88): 1 µg/mL (≈ 0.69 µM)
MIC (ATCC 29213 / MRSA, strain MRSA 89): 1 µg/mL (≈ 0.69 µM)
MIC (ATCC 29213 / MRSA, strain MRSA 90): 1 µg/mL (≈ 0.69 µM)
MIC (ATCC 29213 / MRSA, strain MRSA 91): 1 µg/mL (≈ 0.69 µM)
MIC (ATCC 29213 / MRSA, strain MRSA 92): 1 µg/mL (≈ 0.69 µM)
MIC (ATCC 29213 / MRSA, strain MRSA 93): 2 µg/mL (≈ 1.38 µM)
MIC (ATCC 29213 / MRSA, strain MRSA 94): 2 µg/mL (≈ 1.38 µM)
MIC (ATCC 29213 / MRSA, strain MRSA 95): 2 µg/mL (≈ 1.38 µM)
MIC (ATCC 29213 / MRSA, strain MRSA 96): 1 µg/mL (≈ 0.69 µM)
MIC (ATCC 29213 / MRSA, strain MRSA 97): 1 µg/mL (≈ 0.69 µM)
MIC (ATCC 29213 / MRSA, strain MRSA 98): 1 µg/mL (≈ 0.69 µM)
MIC (ATCC 29213 / MRSA, strain MRSA 99): 1 µg/mL (≈ 0.69 µM)
MIC (ATCC 29213 / MRSA, strain MRSA 100): 1 µg/mL (≈ 0.69 µM)
MIC (ATCC 29213 / MRSA, strain MRSA 101): 1 µg/mL (≈ 0.69 µM)
MIC (ATCC 29213 / MRSA, strain MRSA 102): 2 µg/mL (≈ 1.38 µM)
MIC (ATCC 29213 / MRSA, strain MRSA 103): 1 µg/mL (≈ 0.69 µM)
MIC (ATCC 29213 / MRSA, strain MRSA 104): 1 µg/mL (≈ 0.69 µM)
MIC (ATCC 29213 / MRSA, strain MRSA 105): 1 µg/mL (≈ 0.69 µM)
MIC (ATCC 29213 / MRSA, strain MRSA 106): 1 µg/mL (≈ 0.69 µM)
MIC (ATCC 29213 / MRSA, strain MRSA 107): 2 µg/mL (≈ 1.38 µM)
MIC (ATCC 29213 / MRSA, strain MRSA 108): 1 µg/mL (≈ 0.69 µM)
MIC (ATCC 29213 / MRSA, strain MRSA 109): 1 µg/mL (≈ 0.69 µM)
MIC (ATCC 29213 / MRSA, strain MRSA 110): 1 µg/mL (≈ 0.69 µM)
MIC (ATCC 29213 / MRSA, strain MRSA 111): 1 µg/mL (≈ 0.69 µM)
MIC (ATCC 29213 / MRSA, strain MRSA 112): 1 µg/mL (≈ 0.69 µM)
MIC (ATCC 29213 / MRSA, strain MRSA 113): 1 µg/mL (≈ 0.69 µM)
MIC (ATCC 29213 / MSSA, strain MSSA 01): 1 µg/mL (≈ 0.69 µM)
MIC (ATCC 29213 / MSSA, strain MSSA 02): 1 µg/mL (≈ 0.69 µM)
MIC (ATCC 29213 / NEWMAN, strain Newman): 2 µg/mL (≈ 1.38 µM)
